Measured values taken from US11918575B2, “PZA and cytochrome Bc1 inhibitor combination treatment” (priority 2017, dated 2024).
Converted amounts (≈) assume the structure as drawn.

Assays:
[1] = system: Mycobacterium tuberculosis H37Rv; assay: Mouse tuberculosis infection model, CFU counts in the lungs after treatment; type: in vivo; conditions: female Swiss mice infected i.v. with H37Rv; oral once daily 5 times/week for 4 weeks (day 12-37); necropsy day 41; BDQ 3 mg/kg, Q203 or Cpd X 20 mg/kg, PZA 150 mg/kg; cut off 1.10 = below detectable level
[2] = type: physicochemical
Description: All formulations prepared in 20% HP-β-CD, and used for 5 treatments (one week).
All formulations were solutions and stored at 4° C. during the study.
Stability of BDQ and Q203 in formulation was previously tested, for PZA and Cpd X the stability was tested after one week and found acceptable for both compounds

[3] = system: M. tuberculosis H37Rv; conditions: strain M. tuberculosis H37Rv, inside macrophages; cited from earlier work
[4] = system: M. tuberculosis; conditions: cited from earlier work

SMILES	mean log10 (CFUs in the lungs) [1] [log10]	stability in formulation [2]	MIC50 [3] [nM]	activity against replicating and non-replicating bacteria [4]
COc1nc2ccc(Br)cc2cc1[C@@H](c1ccccc1)[C@@](O)(CCN(C)C)c1cccc2ccccc12 [BDQ, Bedaquiline]	4.46	–	–	–
CCc1nc2ccc(Cl)cn2c1C(=O)NCc1ccc(N2CC3(CCN(c4ccc(OC(F)(F)F)cc4)CC3)C2)cc1 [Cpd X]	4.75	acceptable	–	–
NC(=O)c1cnccn1 [PZA, Pyrazinamide]	3.47	acceptable	–	–
CCc1nc2ccc(Cl)cn2c1C(=O)NCc1ccc(N2CCC(c3ccc(OC(F)(F)F)cc3)CC2)cc1 [Q203]	4.55	–	0.28 (≈ 0.156 ng/mL)	highly active
